Measured values reported in US20160221921A1, “SKIN WHITENING AGENT CONTAINING NOVEL CYCLIC COMPOUND” (RNS CO.,LTD., priority 2013, published 2016).

Legend:
[1] = tested on: B-16 mouse melanoma cells; experiment: Melanin generation inhibitory effects in terms of cells; type: cell-based; conditions: 72 h, 5 μg/ml, cultured for 3 days, relative to control, read-out: Inhibition rate (%) of melanin generation
Protocol: Each of the compounds prepared according to the procedures described in Examples 1 to 29 and hydroquinone were added to a culture solution containing B-16 mouse melanoma cells, followed by experiments to determine whitening effects in terms of cells (Lotan R., Lotan D. Cancer Res., 40, pp. 3345-3350, 1980). After treating the compounds to have final concentrations of […] and […], respectively, each of these compounds was added to a culture medium containing B-16 melanoma cells and cultured for 3 days. Then, these cells were treated using trypsin, separated from a culture vessel and centrifuged, then, melanin was extracted from the cells. Melanin was dissolved by adding 1 ml of 1N sodium hydroxide solution to the extract and subjected to measurement of absorbance at 475 nm, and an amount of the generated melanin was expressed by an absorbance per unit number of cells (10^6 cells) (this procedure was repeated three times). An amount of the generated melanin relative to control was calculated as an inhibition rate (%), and results thereof are shown in Table 1 below.

[2] = tested on: B-16 mouse melanoma cells; experiment: as above; type: cell-based; conditions: for inhibition at 20 µg/mL: 20 μg/ml
[3] = tested on: B-16 mouse melanoma cells; conditions: at 1 μg/ml or more
[4] = Mus musculus, 72 h, cultured for 3 days, relative to control, read-out: Inhibition rate (%) of melanin generation

| SMILES | inhibition at 5 µg/mL [1] | inhibition at 20 µg/mL [2, 4] | further results |
| --- | --- | --- | --- |
| CCOC(=O)c1ccccc1OCC [Example 1, 2-ethoxy benzoic acid ethyl ester] | 31% | 46% |  |
| CCCOC(=O)c1ccccc1OCCC [Example 2, 2-propoxy benzoic acid propyl ester] | 41% | 52% |  |
| CCCCOC(=O)c1ccccc1OCCCC [Example 3, 2-butoxy benzoic acid butyl ester] | 45% | 64% |  |
| CCCCCOC(=O)c1ccccc1OCCCCC [Example 4, 2-pentyloxy benzoic acid pentyl ester] | 54% | 65% |  |
| CCCCCCOC(=O)c1ccccc1OCCCCCC [Example 5, 2-hexyloxy benzoic acid hexyl ester] | 52% | 67% |  |
| CCCCCCCCOC(=O)c1ccccc1OCCCCCCCC [Example 6, 2-octyloxy benzoic acid octyl ester] | 41% | 52% |  |
| CCCCCCCCCCOC(=O)c1ccccc1OCCCCCCCCCC [Example 7, 2-decyloxy benzoic acid decyl ester] | 22% | 35% |  |
| CCOC(=O)c1cccc(OCC)c1 [Example 8, 3-ethoxy benzoic acid ethyl ester] | 27% | 42% |  |
| CCCOC(=O)c1cccc(OCCC)c1 [Example 9, 3-propoxy benzoic acid propyl ester] | 29% | 48% |  |
| CCCCOC(=O)c1cccc(OCCCC)c1 [Example 10, 3-butoxy benzoic acid butyl ester] | 38% | 54% |  |
| CCCCCOC(=O)c1cccc(OCCCCC)c1 [Example 11, 3-pentyloxy benzoic acid pentyl ester] | 49% | 62% |  |
| CCCCCCOC(=O)c1cccc(OCCCCCC)c1 [Example 12, 3-hexyloxy benzoic acid hexyl ester] | 46% | 61% |  |
| CCCCCCCCOC(=O)c1cccc(OCCCCCCCC)c1 [Example 13, 3-octyloxy benzoic acid octyl ester] | 29% | 41% |  |
| CCCCCCCCCCOC(=O)c1cccc(OCCCCCCCCCC)c1 [Example 14, 3-decyloxy benzoic acid decyl ester] | 21% | 32% |  |
| CCCCCOC(=O)c1cc(C(C)=O)ccc1OCCCCC [Example 15, 5-acetyl-2-pentyloxy benzoic acid pentyl ester] | 39% | 57% |  |
| CCCCCOC(=O)c1ccc2ccccc2c1OCCCCC [Example 16, 1-pentyloxy-2-naphthoic acid pentyl ester] | 41% | 52% |  |
| CCCCCOC(=O)c1cc2ccccc2cc1OCCCCC [Example 17, 3-pentyloxy-2-naphthoic acid pentyl ester] | 38% | 52% |  |
| CCCCCOC(=O)c1ccncc1OCCCCC [Example 18, 3-pentyloxy-4-pyridinecarboxylic acid pentyl ester] | 42% | 71% |  |
| CCCCCOC(=O)c1c(OCCCCC)cnc2ccccc12 [Example 19, 3-pentyloxy-quinoline-4-carboxylic acid pentyl ester] | 38% | 59% |  |
| CCCCCOc1ccccc1C(C)=O [Example 20, 1-(2-pentyloxy-phenyl)-ethanone] | 24% | 41% |  |
| CCCCCOc1cccc(C(C)=O)c1 [Example 21, 1-(3-pentyloxy-phenyl)-ethanone] | 25% | 45% |  |
| CCCCCOc1cc2ccccc2cc1C(C)=O [Example 22, 1-(3-pentyloxy-naphthalen-2-yl)-ethanone] | 19% | 37% |  |
| CC(=O)Oc1ccccc1C(C)=O [Example 23, acetic acid 2-acetyl-phenyl ester] | 27% | 41% |  |
| CCCCC(CC)C(=O)Oc1ccccc1C(C)=O (centres unmarked) [Example 24, 2-ethylhexanoic acid 2-acetyl-phenyl ester] | 19% | 38% |  |
| CCCCCOc1ccccc1CCC [Example 25, 1-pentyloxy-2-propyl-benzene] | 16% | 31% |  |
| CCCCC(CC)C(=O)Oc1ccccc1CCC (centres unmarked) [Example 26, 2-ethylhexanoic acid 2-propyl-phenyl ester] | 24% | 35% |  |
| CCCCC(CC)C(=O)Oc1cccc(CCC)c1 (centres unmarked) [Example 27, 2-ethylhexanoic acid 3-propyl-phenyl ester] | 23% | 41% |  |
| CCCCC(CC)COC(=O)c1ccccc1O (centres unmarked) [Example 28, 2-hydroxy benzoic acid 2-ethylhexyl ester] | 27% | 39% |  |
| CCCCC(CC)COC(=O)c1cccc(O)c1 (centres unmarked) [Example 29, 3-hydroxy benzoic acid 2-ethylhexyl ester] | 26% | 37% |  |
| Oc1ccc(O)cc1 [Hydroquinone, hydroquinone, reference compound] |  |  | cytotoxicity [3]: serious cytotoxicity; Inhibition rate (%) of melanin generation ([2]; 5 μg/ml, cultured for 3 days, relative to control): Apoptosis; inhibition at 1 µg/mL ([2]; Mus musculus, 72 h, 1 μg/ml, cultured for 3 days, relative to control, read-out: Inhibition rate (%) of melanin generation): 48%; melanin generation inhibitory effects (in words) ([2]; cultured mouse melanoma cells): strong effects of inhibiting melanin generation at a low concentration |
